From patent US9066914B2, “Prophylactic or ameliorating agent for pigmentation” (POLA CHEMICAL INDUSTRIES INC., priority 2010, dated 2015)

These compounds were tested on normal human melanocyte (assay: UVB-induced cell activation inhibition test using normal human melanocyte). Details: formazan (MTT) production ratio, UVB-irradiated DMSO negative control = 100%; UVB 5 mJ/cm^2; 100 mM in DMSO diluted 1,000 times; conditioned medium of normal human keratinocyte; mean of 3 samples.
Assay type: cell-based
Experimental: The inhibitory effect of the compounds on the activation of melanocyte by activating factor produced and released from normal human keratinocyte by the ultraviolet B (UVB) was evaluated by using the index of the cell proliferation of normal human melanocyte.
Normal human keratinocyte (Kurabo Industries, Ltd.) were seeded by Humedia-KG2 medium (Kurabo Industries, Ltd.) at a concentration of 10×10^4 cells/well in 24-well plate. Then, cells were cultured for 24 hours.
The compound was dissolved at a concentration of 100 mM in DMSO, which was diluted 1,000 times with Humedia-KG2 medium and used as a sample solution. As for the positive control group, tranexamic acid was dissolved at a concentration of 100 mM in DMSO, which was diluted 1,000 times with Humedia-KG2 medium as a positive control sample solution. As for the negative control group, DMSO was diluted 1,000 times with Humedia-KG2 medium as a negative control sample solution.
The medium of normal human keratinocyte was exchanged with Humedia-KG2 medium (sample solution) containing the compound at a predetermined concentration and cells were cultured for further 24 hours. After that, the medium was exchanged with PBS (phosphate buffered saline), and cells were irradiated with the ultraviolet B (UVB) at 5 mJ/cm^2 by using an ultraviolet lamp (FL20S•E-30/DMR, Toshiba Medical Supply Co., Ltd.) as a light source. After the ultraviolet radiation, PBS was exchanged with the sample solution. Cells were cultured for further 24 hours, and then the conditioned medium was collected. Normal human melanocyte cells were seeded at the concentration of 3×10^4 cells/well in 96-well plate by a medium of Medium 254 (Kurabo Industries, Ltd.). Cells were cultured for 24 hours. After that, the medium was exchanged with the conditioned medium collected from normal human keratinocyte, and cells were cultured for further 24 hours. After 24 hours, the medium was exchanged with Humedia-KG2 medium containing 0.5 mg/mL of 3-(4,5-dimethyl-2-thiazoyl)-2,5-diphenyl-2H-tetrazolium bromide (MTT), and cultured for 3 hour.
The formazan amount was measured by the absorbances at 570 nm and 690 nm of cell lysate lysed with 2-propanol using a microplate reader (Benchmark Plus, Bio-Rad) by subtracting the absorbance at 690 nm from the absorbance at 570 nm.
The inhibitory effect of each compounds on melanocyte proliferation was calculated as the formazan production ratio (%) when the absorbance of negative control group, which was added DMSO and UVB irradiated, was defined as 100%.
Therefore, the small production ratio of formazan means that the inhibitory effect of the compounds is strong against the activation of melanocyte by the melanocyte activating factor released form keratinocyte.

Compound	Melanocyte proliferation ratio Average (%)
Cc1ccccc1C(=O)N[C@@H](CS(=O)(=O)O)C(=O)O [L-Isomer of Compound 1, N-(o-Toluoyl)-L-cysteic acid]	73.7
Cc1ccc(C(=O)NC(CCS(=O)(=O)O)C(=O)O)cc1 (racemic) [Compound 6, N-(p-toluoyl)homocysteic acid]	71.3
Cc1ccc(C(=O)N[C@@H](CS(=O)(=O)O)C(=O)O)cc1 [L-Isomer of Compound 3, N-(p-toluoyl)cysteic acid]	58.4
O=C(N[C@@H](CS(=O)(=O)O)C(=O)O)c1ccc(-c2ccccc2)cc1 [L-Isomer of Compound 5, N-(4-phenylbenzoyl)cysteic acid]	79.0
Cc1cccc(C(=O)N[C@@H](CS(=O)(=O)O)C(=O)O)c1 [L-Isomer of Compound 2, N-(m-toluoyl)cysteic acid]	77.0
NC[C@H]1CC[C@H](C(=O)O)CC1 [Tranexamic acid, reference compound]	80.9
COc1ccc(C(=O)N[C@@H](CS(=O)(=O)O)C(=O)O)cc1 [L-Isomer of Compound 4, N-(p-methoxybenzoyl)cysteic acid]	65.6

The compounds below were run on pigmented guinea pigs (assay: Ultraviolet ray-induced pigmentation suppression test using guinea pigs). Details: 0.5% (w/v) in ethanol, 30 μL once a day for 6 weeks; L* on 43rd day minus L* before UV (300 mJ/cm^2); average ± standard deviation of 8 animals; solvent control −10.07 ± 0.78.
Assay type: in vivo, guinea pig
Description: The hair of the dorsal skin of each of eight pigmented guinea pigs was removed and shaved using an electrical hair clipper and shaver, and each of the sites was covered with a black cloth having a total of four (two on the top and bottom and two on the right and left) irradiation windows with a size of 2×2 cm, and then irradiated with ultraviolet rays of 300 mJ/cm^2 using FL20S•E30 lamp as a light source. The operation was repeated on days 1, 3, 5, and 8 after the start of the test to induce pigmentation on the four test sites. Compound 3 was dissolved in ethanol at a concentration of 0.5% (w/v) to prepare samples for application. Further, as a control, ethanol was used alone as a sample for application. On the 1st day of the test after the ultraviolet radiation, the application of samples was started. […] The skin brightness (L* value) of each of the test sites was measured by a colorimeter (CR-200, Konica Minolta Holdings, Inc.) before the ultraviolet radiation on the day of the start of application (day 1) and after 6 weeks (on the 43rd day of the test), and a ΔL* value was calculated by subtracting an L* value before the ultraviolet radiation from the L* value on 43rd day of the test. […] Therefore, it can be evaluated that, as the ΔL* value becomes larger (high numerical value), pigmentation is more inhibited.

Compound	ΔL* value
Cc1ccc(C(=O)NC(CS(=O)(=O)O)C(=O)O)cc1 [L-Isomer of Compound 3, N-(p-toluoyl)cysteic acid]	−8.88 ± 0.54

Same assay, conditions: concentration of 0.5%, applied to the skin

Compound	suppression of ultraviolet-induced pigmentation (in words)
Cc1ccc(C(=O)NC(CS(=O)(=O)O)C(=O)O)cc1 [L-Isomer of Compound 3, N-(p-toluoyl)cysteic acid]	clearly suppresses the pigmentation
